Assay results from PMC9340777 (Journal of Medicinal Chemistry, 2022).

Tests used:
[1] = in vitro; conditions: male, Wistar Han, rat, tissue homogenate, pH 6.8
[2] = physchem; conditions: buffer
[3] = in vitro; conditions: rat, pH 7.2, rat blood T1/2 (h) pH 7.2
[4] = physchem; conditions: buffer, pH 6.5
[5] = Han Wistar, rat, pH 6.8
[6] = pH 6.5
[7] = rat, in vivo

CC(OC(=O)[C@H](NC(=O)[C@@H](N)CCCCN)C(C)C)OC(=O)N1CCC(OC(=O)C(O)(c2ccccc2)c2ccccc2)CC1.Cl.Cl (stereo partly drawn) [Compound 26, 1-((L-Lysyl-D-valyl)oxy)ethyl-4-(2-hydroxy-2,2-diphenylacetoxy)piperidine-1-carboxylate Dihydrochloride]
half-life [1]: 204 ± 4.8 min | half-life ([2]; pH 6.5): 522 ± 63.6 min | half-life ([2]; pH 7.4): 108 ± 12 min | half-life [3]: 36 ± 4.2 min

CC(OC(=O)CCCCN)OC(=O)N1CCC(OC(=O)C(O)(c2ccccc2)c2ccccc2)CC1.Cl (stereo not drawn) [Compound 6, 1-((5-Aminopentanoyl)oxy)ethyl-4-(2-hydroxy-2,2-diphenylacetoxy)piperidine-1-carboxylate Hydrochloride]
half-life [4]: < 0.6 min

CC(C)C[C@H](N)C(=O)OC(C)OC(=O)N1CCC(OC(=O)C(O)(c2ccccc2)c2ccccc2)CC1.Cl (stereo partly drawn) [Compound 13, 1-((L-Leucyl)oxy)ethyl-4-(2-hydroxy-2,2-diphenylacetoxy)piperidine-1-carboxylate Hydrochloride]
half-life [4]: 305 min

CC[C@H](C)[C@H](N)C(=O)N[C@@H](CCCCN)C(=O)OC(C)OC(=O)N1CCC(OC(=O)C(O)(c2ccccc2)c2ccccc2)CC1.Cl.Cl (stereo partly drawn) [Compound 27, 1-((L-Isoleucyl-L-lysyl)oxy)ethyl-4-(2-hydroxy-2,2-diphenylacetoxy)piperidine-1-carboxylate Dihydrochloride]
half-life ([2]; pH 6.5): 294 ± 3.6 min | half-life ([2]; pH 7.4): 54 ± 2.4 min

CC[C@H](C)[C@H](N)C(=O)OC(C)OC(=O)N1CCC(OC(=O)C(O)(c2ccccc2)c2ccccc2)CC1.Cl (stereo partly drawn) [Compound 16, 1-((L-Isoleucyl)oxy)ethyl-4-(2-hydroxy-2,2-diphenylacetoxy)piperidine-1-carboxylate Hydrochloride]
half-life [4]: 835 min

CC(OC(=O)[C@@H](NC(=O)[C@@H](N)CCCCN)C(C)C)OC(=O)N1CCC(OC(=O)C(O)(c2ccccc2)c2ccccc2)CC1.Cl.Cl (stereo partly drawn) [Compound 25, 1-((L-Lysyl-L-valyl)oxy)ethyl-4-(2-hydroxy-2,2-diphenylacetoxy)piperidine-1-carboxylate Dihydrochloride]
half-life [1]: 36 ± 5.4 min | half-life ([2]; pH 6.5): 864 ± 101 min | half-life ([2]; pH 7.4): 264 ± 23.4 min

CC(OC(=O)[C@@H](N)C(C)(C)C)OC(=O)N1CCC(OC(=O)C(O)(c2ccccc2)c2ccccc2)CC1.Cl (stereo partly drawn) [Compound 15, 1-(((S)-2-Amino-3,3-dimethylbutanoyl)oxy)ethyl-4-(2-hydroxy-2,2-diphenylacetoxy)piperidine-1-carboxylate Hydrochloride]
half-life [4]: 730 min

CC(OC(=O)[C@H](CCCCN)NC(=O)CCN)OC(=O)N1CCC(OC(=O)C(O)(c2ccccc2)c2ccccc2)CC1.Cl.Cl (stereo partly drawn) [Compound 28, 1-(((3-Aminopropanoyl)-L-lysyl)oxy)ethyl-4-(2-hydroxy-2,2-diphenylacetoxy)piperidine-1-carboxylate Dihydrochloride]
half-life [1]: 42 ± 12.6 min | half-life ([2]; pH 6.5): 6130 ± 232 min | half-life ([2]; pH 7.4): 690 ± 43.8 min

CC(OC(=O)[C@@H]1CCCN1)OC(=O)N1CCC(OC(=O)C(O)(c2ccccc2)c2ccccc2)CC1.Cl (stereo partly drawn) [Compound 9, 1-((L-Prolyl)oxy)ethyl-4-(2-hydroxy-2,2-diphenylacetoxy)piperidine-1-carboxylate Hydrochloride]
half-life [4]: 8.4 min

CC(OC(=O)[C@H](NC(=O)[C@@H](N)CCCCN)C(C)(C)C)OC(=O)N1CCC(OC(=O)C(O)(c2ccccc2)c2ccccc2)CC1.Cl.Cl (stereo partly drawn) [Compound 23, 1-(((R)-2-((S)-2,6-Diaminohexanamido)-3,3-dimethylbutanoyl)oxy)ethyl-4-(2-hydroxy-2,2-diphenylacetoxy)piperidine-1-carboxylate Dihydrochloride]
half-life [1]: 1520 ± 116 min | formation of monobasic intermediate (peptide amide bond hydrolysis) [5]: no evidence of intermediate 18 | half-life ([2]; pH 6.5): 3520 ± 295 min | half-life ([2]; pH 7.4): 2200 ± 102 min | appearance in dosing formulation [6]: clear solution | half-life [3]: 420 ± 49.2 min | 23 in lung as % of the total dose delivered (calculated mass balance) ([7]; male, Sprague Dawley): 54% | ratio of 23 to 1 in lung ([7]; male, Sprague Dawley): ~27:1 | total lung concentration of 23 ([7]; male, Sprague Dawley, 0.2 mg/kg): 31.2 µM | plasma concentration of 23 in words ([7]; 0.2 mg/kg): only a very low concentration

CC(OC(=O)[C@@H](N)C(C)C)OC(=O)N1CCC(OC(=O)C(O)(c2ccccc2)c2ccccc2)CC1.Cl (stereo partly drawn) [Compound 14, 1-((L-Valyl)oxy)ethyl-4-(2-hydroxy-2,2-diphenylacetoxy)piperidine-1-carboxylate Hydrochloride]
half-life [4]: 950 min

CC(OC(=O)[C@@H](NC(=O)[C@@H](N)CCCCN)C(C)(C)C)OC(=O)N1CCC(OC(=O)C(O)(c2ccccc2)c2ccccc2)CC1.Cl.Cl (stereo partly drawn) [Compound 22, 1-(((S)-2-((S)-2,6-Diaminohexanamido)-3,3-dimethylbutanoyl)oxy)ethyl-4-(2-hydroxy-2,2-diphenylacetoxy)piperidine-1-carboxylate Dihydrochloride]
half-life [1]: 150 ± 4.2 min | formation of monobasic intermediate (peptide amide bond hydrolysis) [5]: clearly showing the intermediate 15 | half-life ([2]; pH 6.5): 11160 ± 47.4 min | half-life ([2]; pH 7.4): 4020 ± 13.8 min | half-life [3]: 12 min | rat blood T1/2 (h) pH 7.2: 0.1 ± 0.01 h

CC(OC(=O)[C@@H](N)CCCCN)OC(=O)N1CCC(OC(=O)C(O)(c2ccccc2)c2ccccc2)CC1.Cl.Cl (stereo partly drawn) [Compound 17, 1-((L-Lysyl)oxy)ethyl-4-(2-hydroxy-2,2-diphenylacetoxy)piperidine-1-carboxylate Dihydrochloride]
half-life ([2]; pH 6.5): 234 ± 3 min | half-life ([2]; pH 7.4): 66 ± 1.2 min
